The target in assay [1] is T1, IGF1R (Homo sapiens, UniProt P08069). The experiment in a line: Enzymatic kinase assay (filter-binding/flashplate). In kind it is biochemical. The protocol:
(§1) Two methods were used to analyze phosphorylated peptides and proteins produced by the listed tyrosine and serine/threonine-specific protein kinases: either using a filter-binding assay (FB), or using a flashplate assay (FP). The activities of protein kinases were assayed in the presence or absence of inhibitors, by measuring the incorporation of ^33P from [γ^33P]ATP into appropriate substrates.
(§2) 96-well polypropylene microplates were used to assay the activity in the FB mode. To determine the inhibitory activity of compounds 10 μL of compound dilutions were pipetted into 96-well plates followed by the addition of 10 μL of assay mix and 10 μL of individual enzymes. With the addition of the enzymes the reactions were initiated and continued at RT. […] The final concentration of DMSO in the enzyme assays was 1%.
(§3) Flashplates are available as 96-well standard (STFPs) or as streptavidin-(SAFPs) or nickel coated FPs (NiFPs) from Perkin Elmer. STFPs are 96-well polystyrene microplates in which the interior of each well is permanently coated with a thin layer of polystyrene-based scintillant. Streptavidin flashplates (SAFP) are 96 or 384-well STFPs coated with streptavidin. SAFPs are suitable for a wide variety of assay applications which utilize biotinylated capture molecules. NiFP or nickel chelate flashplates are 96- or 384-well STFPs coated with nickel chelate. NiFPs are designed for in-plate, radiometric assays which utilize 4- or 6-histidine tagged proteins and peptides.
(§4) All kinase assays were performed in STFPs for 60 mins at RT and stopped with 50 μL of 0.5% H3PO4 except PKA which were carried out in polypropylene 96- and 384-well plates, respectively. […] All wells were then washed three times with 200 μL of 0.5% H3PO4 and the plates were dried at room temperature. The plates were sealed and counted in a microplate scintillation counter (TopCount NXT, TopCount NXT HTS). The final concentration of DMSO in the enzyme assays was 1%.

The target of a further assay is InsR (Homo sapiens, UniProt P06213). The experiment in a line: Enzymatic kinase assay (filter-binding/flashplate). In kind it is biochemical. The following applies: enzymatic; read-out: InsR IC50 values. On the procedure: as §1, §2, §3, §4
The next assay concerns the target T2, Aurora A (Homo sapiens, UniProt O14965).
T2 sequence (O14965 1-403): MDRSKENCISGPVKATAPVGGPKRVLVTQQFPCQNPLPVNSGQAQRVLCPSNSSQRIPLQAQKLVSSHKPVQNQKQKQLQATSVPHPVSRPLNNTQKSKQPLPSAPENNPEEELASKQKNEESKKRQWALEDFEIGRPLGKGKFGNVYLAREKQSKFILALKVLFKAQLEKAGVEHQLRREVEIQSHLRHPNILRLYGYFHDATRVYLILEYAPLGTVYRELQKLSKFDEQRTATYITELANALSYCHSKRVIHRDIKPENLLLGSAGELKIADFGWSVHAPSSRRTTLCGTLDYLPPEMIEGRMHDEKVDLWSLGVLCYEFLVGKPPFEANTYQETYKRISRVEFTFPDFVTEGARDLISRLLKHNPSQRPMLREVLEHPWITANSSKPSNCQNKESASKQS
The experiment in a line: Enzymatic kinase assay. In kind it is biochemical. The protocol: as §1, §2, §3, §4

In another assay the target is CDK2A (Homo sapiens, UniProt P24941). The experiment in a line: Enzymatic kinase assay. In kind it is biochemical. On the procedure: as §1, §2, §3, §4
The next assay concerns the target COT1 (Homo sapiens, UniProt P41279). The experiment in a line: Enzymatic kinase assay. In kind it is biochemical. The protocol:
as §1, §2, §3, §4

The next assay has as its target ERK2 (Homo sapiens, UniProt P28482). The experiment in a line: Enzymatic kinase assay. In kind it is biochemical. On the procedure: as §1, §2, §3, §4
The target in a further assay is EphA4 (Homo sapiens, UniProt P54764). The experiment in a line: Enzymatic kinase assay. In kind it is biochemical. On the procedure: as §1, §2, §3, §4
The next assay deals with FGFR-4 (Homo sapiens, UniProt P22455). The experiment in a line: Enzymatic kinase assay. In kind it is biochemical. On the procedure: as §1, §2, §3, §4
The next assay deals with GSK3beta (Homo sapiens, UniProt P49841). The experiment in a line: Enzymatic kinase assay. In kind it is biochemical. On the procedure:
as §1, §2, §3, §4

Another assay addresses HER2 (Homo sapiens, UniProt P04626). The experiment in a line: Enzymatic kinase assay. In kind it is biochemical. The protocol:
as §1, §2, §3, §4

The next assay has as its target JAK2 (Homo sapiens, UniProt O60674). The experiment in a line: Enzymatic kinase assay. In kind it is biochemical. The protocol: as §1, §2, §3, §4
For the next assay, the target named is KDR (Homo sapiens, UniProt P35968). The experiment in a line: Enzymatic kinase assay. In kind it is biochemical. On the procedure:
as §1, §2, §3, §4

The target of a further assay is LCK (Homo sapiens, UniProt P06239). The experiment in a line: Enzymatic kinase assay. In kind it is biochemical. On the procedure:
as §1, §2, §3, §4

The target in the next assay is MK2 (Homo sapiens, UniProt P49137). The experiment in a line: Enzymatic kinase assay. In kind it is biochemical. On the procedure: as §1, §2, §3, §4
In a further assay the target is P38a (Homo sapiens, UniProt Q16539). The experiment in a line: Enzymatic kinase assay. In kind it is biochemical. On the procedure: as §1, §2, §3, §4
Another assay addresses PDGFRa (Homo sapiens, UniProt P16234). The experiment in a line: Enzymatic kinase assay. In kind it is biochemical. On the procedure: as §1, §2, §3, §4
For another assay, the target named is RET (Homo sapiens, UniProt P07949). The experiment in a line: Enzymatic kinase assay. In kind it is biochemical. The following applies: enzymatic; read-out: RET IC50 values (converted). The protocol:
as §1, §2, §3, §4

A further assay addresses TYK2 (Homo sapiens, UniProt P29597). The experiment in a line: Enzymatic kinase assay. In kind it is biochemical. The protocol:
as §1, §2, §3, §4

Another assay concerns the target cABLT315 (Homo sapiens, UniProt P00519, T315I). The experiment in a line: Enzymatic kinase assay. In kind it is biochemical. On the procedure:
as §1, §2, §3, §4

Another assay concerns the target cKIT (Homo sapiens, UniProt P10721). The experiment in a line: Enzymatic kinase assay. In kind it is biochemical. The protocol:
as §1, §2, §3, §4

For another assay, the target named is cMET (Homo sapiens, UniProt P08581). The experiment in a line: Enzymatic kinase assay. In kind it is biochemical. The protocol:
as §1, §2, §3, §4

Assay [2] deals with T1, IGF1R. The experiment in a line: Cellular IGF-1R assay: inhibition of IGF1R phosphorylation in Hek293 cells, capture ELISA (MSD). The following applies: IGF-triggered receptor phosphorylation. Further details: expressed in transfected cells; host or cells: Hek293 (Hek293-IGF1R). In kind it is cell-based. The protocol:
IVa. Cellular IGF-1R and InsR Assays
Compound-mediated inhibition of IGF1R and INSR phosphorylation in Hek293 cells transduced with the corresponding receptors is assessed in a capture ELISA format using the MSD (Meso Scale Discovery) platform. Briefly, 30′000 cells washed and diluted in starvation medium (DMEM high glucose supplemented with 0.1% BSA) are seeded in 90 μL per well into 96-well plates pre-coated with poly-D-lysine (0.1 mg/mL in PBS/O). After 24 h incubation at 37° C. and 5% CO2, dose-response effects are determined with 3-fold serial compound dilutions, starting at 10 μM. The final vehicle concentration is 0.1% DMSO in all wells. Following pre-incubation with compounds for 1 h, receptor phosphorylation is triggered by a 10 min exposure to 1.0 ng/μL IGF for Hek293-IGF1R cells, and 5.0 ng/μL insulin for Hek293-InsR cells. Cell lysis is achieved by addition of 80 μL MSD lysis buffer per aspirated well, incubation on ice for 20 min, and a freeze-thaw cycle. Target phosphorylation is then assessed by transferring volumes corresponding to approx. 6 μg Hek293-IGF1R or 0.6 μg Hek293-InsR lysates to MSD assay plates pre-coated with total-IGF1R or total-InsR Abs, respectively. […] Immune complexes are detected by a SULFO-Tag™-coupled anti-rabbit IgG antibody in the presence of 150 μL MSD read-buffer. Light emission at 620 nm triggered by application of electric current is recorded on a MSD Sectorlmager 6000. Acquired raw data (mean Ru-ECL units) are processed in an Excel analysis template. The plate blank (MSD lysis buffer) is subtracted from all data points. The effect of a particular test compound concentration on receptor phosphorylation is expressed relative to the window defined by ligand-stimulated vs unstimulated control cells (set as 100%). IC50 values [nM] are determined using 4-parametric curve-fitting (XLfit software, V4.3.2).

In a further assay the target is hERG channels (Homo sapiens, UniProt Q12809). The experiment in a line: biochemical.

Where only a bound is given, the exact number is not on record here.

Chain of InsR (P06213 28-1382, species assumed): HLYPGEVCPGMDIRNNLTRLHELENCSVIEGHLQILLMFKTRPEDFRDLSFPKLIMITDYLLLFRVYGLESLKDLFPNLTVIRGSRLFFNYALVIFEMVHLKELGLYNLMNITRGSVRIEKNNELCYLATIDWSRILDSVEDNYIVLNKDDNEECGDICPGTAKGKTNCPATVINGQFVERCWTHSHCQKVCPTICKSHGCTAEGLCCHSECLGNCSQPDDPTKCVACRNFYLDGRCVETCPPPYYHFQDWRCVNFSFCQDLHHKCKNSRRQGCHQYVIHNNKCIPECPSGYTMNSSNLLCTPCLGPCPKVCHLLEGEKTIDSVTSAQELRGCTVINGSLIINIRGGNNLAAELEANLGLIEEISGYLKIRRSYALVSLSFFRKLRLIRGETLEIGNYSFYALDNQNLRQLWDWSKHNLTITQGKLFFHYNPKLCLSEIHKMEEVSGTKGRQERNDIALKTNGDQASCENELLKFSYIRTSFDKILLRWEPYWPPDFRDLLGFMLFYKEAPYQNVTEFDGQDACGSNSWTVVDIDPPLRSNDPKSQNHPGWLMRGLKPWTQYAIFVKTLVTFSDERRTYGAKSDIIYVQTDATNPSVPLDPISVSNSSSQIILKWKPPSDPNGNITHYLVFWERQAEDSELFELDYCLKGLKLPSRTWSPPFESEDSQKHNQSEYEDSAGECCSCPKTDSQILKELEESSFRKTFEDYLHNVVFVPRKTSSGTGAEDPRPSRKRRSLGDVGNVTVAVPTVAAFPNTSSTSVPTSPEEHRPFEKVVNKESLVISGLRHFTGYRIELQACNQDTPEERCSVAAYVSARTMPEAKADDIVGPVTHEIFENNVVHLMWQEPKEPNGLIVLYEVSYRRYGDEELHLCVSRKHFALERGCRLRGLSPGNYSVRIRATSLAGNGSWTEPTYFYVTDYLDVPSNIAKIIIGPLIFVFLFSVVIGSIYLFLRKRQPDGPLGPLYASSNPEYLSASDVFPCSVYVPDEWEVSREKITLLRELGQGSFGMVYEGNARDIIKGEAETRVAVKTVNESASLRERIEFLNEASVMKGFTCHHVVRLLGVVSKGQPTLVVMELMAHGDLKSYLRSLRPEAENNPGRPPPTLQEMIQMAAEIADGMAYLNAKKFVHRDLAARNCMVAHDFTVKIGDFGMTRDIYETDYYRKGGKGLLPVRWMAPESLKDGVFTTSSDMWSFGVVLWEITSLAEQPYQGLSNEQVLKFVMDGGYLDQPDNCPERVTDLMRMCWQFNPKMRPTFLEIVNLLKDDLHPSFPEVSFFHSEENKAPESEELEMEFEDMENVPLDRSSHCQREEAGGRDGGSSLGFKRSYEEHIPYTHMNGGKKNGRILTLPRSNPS
Chain of COT1 (P41279 whole entry): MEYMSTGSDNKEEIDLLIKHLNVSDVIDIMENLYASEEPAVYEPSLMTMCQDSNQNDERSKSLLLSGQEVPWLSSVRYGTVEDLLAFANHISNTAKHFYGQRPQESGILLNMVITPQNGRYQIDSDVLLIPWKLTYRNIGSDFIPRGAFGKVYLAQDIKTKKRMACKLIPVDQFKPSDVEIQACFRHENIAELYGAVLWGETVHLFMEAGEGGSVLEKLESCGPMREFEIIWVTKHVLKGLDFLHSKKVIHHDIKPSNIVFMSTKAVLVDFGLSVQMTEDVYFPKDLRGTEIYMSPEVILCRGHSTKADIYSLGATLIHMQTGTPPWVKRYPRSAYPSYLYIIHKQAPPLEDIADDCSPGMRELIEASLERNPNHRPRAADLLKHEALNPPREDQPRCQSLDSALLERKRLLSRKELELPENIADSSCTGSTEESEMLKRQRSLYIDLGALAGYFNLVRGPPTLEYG
Chain of HER2 (P04626 23-1255, species assumed): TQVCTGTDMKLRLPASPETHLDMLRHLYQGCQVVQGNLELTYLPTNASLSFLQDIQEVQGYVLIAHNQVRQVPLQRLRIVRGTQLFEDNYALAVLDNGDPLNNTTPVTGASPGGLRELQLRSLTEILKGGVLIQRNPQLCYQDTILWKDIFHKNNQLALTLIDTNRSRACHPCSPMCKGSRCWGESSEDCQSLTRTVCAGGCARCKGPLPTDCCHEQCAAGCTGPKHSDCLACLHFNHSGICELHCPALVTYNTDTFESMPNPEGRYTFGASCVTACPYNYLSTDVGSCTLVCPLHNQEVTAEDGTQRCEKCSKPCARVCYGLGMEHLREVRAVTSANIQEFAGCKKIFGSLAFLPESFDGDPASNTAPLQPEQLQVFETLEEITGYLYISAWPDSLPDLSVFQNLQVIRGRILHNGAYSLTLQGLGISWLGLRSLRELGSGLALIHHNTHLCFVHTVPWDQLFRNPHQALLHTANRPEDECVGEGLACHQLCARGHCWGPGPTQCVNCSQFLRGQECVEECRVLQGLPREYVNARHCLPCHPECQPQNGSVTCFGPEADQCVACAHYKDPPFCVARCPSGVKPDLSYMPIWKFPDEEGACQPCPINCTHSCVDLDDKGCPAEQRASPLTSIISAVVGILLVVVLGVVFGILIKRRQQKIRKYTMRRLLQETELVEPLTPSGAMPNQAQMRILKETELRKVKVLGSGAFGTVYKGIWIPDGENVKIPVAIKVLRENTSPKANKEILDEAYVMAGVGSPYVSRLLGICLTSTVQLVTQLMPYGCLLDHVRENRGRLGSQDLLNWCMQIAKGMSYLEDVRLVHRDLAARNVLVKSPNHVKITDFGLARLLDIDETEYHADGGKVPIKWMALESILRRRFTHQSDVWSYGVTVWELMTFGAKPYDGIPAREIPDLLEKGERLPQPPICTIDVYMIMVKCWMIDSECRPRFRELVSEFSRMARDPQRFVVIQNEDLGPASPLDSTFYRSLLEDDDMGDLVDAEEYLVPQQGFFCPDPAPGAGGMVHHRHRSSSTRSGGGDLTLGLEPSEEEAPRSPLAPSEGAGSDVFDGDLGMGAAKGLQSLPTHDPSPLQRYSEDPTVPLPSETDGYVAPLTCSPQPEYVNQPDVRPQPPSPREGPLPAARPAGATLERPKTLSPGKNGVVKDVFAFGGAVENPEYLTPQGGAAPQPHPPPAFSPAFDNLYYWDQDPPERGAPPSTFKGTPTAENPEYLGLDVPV
Chain of KDR (P35968 20-1356, species assumed): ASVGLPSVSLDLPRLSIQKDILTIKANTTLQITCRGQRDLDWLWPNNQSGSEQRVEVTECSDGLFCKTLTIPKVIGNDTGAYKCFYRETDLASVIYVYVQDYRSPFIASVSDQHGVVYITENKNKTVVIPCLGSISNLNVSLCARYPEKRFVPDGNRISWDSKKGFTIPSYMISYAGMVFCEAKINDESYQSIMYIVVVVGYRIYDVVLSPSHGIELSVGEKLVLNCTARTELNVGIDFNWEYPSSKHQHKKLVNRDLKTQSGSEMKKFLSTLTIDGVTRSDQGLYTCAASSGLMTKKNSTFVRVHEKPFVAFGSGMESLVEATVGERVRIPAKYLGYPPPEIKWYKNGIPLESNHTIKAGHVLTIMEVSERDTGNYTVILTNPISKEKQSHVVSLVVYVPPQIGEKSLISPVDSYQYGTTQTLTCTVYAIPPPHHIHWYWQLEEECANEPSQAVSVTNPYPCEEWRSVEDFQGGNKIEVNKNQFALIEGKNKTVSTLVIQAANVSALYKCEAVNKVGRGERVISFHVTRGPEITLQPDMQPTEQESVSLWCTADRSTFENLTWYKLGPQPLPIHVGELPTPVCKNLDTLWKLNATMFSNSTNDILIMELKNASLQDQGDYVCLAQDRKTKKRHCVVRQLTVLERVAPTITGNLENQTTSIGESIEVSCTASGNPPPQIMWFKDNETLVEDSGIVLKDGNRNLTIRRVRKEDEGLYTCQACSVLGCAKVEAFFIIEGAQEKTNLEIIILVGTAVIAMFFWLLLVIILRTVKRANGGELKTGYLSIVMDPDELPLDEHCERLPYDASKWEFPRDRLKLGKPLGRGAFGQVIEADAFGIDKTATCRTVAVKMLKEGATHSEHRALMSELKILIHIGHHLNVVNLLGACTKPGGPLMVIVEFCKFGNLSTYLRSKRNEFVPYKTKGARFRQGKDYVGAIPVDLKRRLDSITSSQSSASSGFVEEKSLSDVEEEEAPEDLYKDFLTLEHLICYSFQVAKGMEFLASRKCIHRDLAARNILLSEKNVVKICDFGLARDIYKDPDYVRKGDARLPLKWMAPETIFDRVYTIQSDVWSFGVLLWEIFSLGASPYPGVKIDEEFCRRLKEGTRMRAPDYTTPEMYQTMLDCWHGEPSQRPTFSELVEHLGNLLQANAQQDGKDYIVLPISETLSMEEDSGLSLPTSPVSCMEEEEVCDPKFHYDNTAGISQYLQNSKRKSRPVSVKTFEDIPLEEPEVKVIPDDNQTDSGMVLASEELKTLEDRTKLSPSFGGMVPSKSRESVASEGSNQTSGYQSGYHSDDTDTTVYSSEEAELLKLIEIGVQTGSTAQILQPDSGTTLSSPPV
Chain of MK2 (P49137 whole entry, species assumed): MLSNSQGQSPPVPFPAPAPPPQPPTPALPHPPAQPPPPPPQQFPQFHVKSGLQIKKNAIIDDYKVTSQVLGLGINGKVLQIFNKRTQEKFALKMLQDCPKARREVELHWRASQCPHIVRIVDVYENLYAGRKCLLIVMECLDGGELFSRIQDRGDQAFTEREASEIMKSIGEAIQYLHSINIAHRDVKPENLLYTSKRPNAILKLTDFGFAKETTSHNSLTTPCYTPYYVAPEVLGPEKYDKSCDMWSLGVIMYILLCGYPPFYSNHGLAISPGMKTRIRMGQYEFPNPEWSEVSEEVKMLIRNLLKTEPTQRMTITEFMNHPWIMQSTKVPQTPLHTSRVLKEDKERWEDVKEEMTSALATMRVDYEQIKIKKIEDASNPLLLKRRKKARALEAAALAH

With `Nc1ncnc2c1c(-c1cccc(OCC3CCCO3)c1F)cn2[C@H]1C[C@@H](CN2CCS(=O)(=O)CC2)C1` (mixture of isomers) [Example 1, 7-[3-(1,1-Dioxo-1-thiomorpholin-4-ylmethyl)-cyclobutyl]-5-[2-fluoro-3-(tetrahydro-furan-2-ylmethoxy)-phenyl]-7H-pyrrolo[2,3-d]pyrimidin-4-ylamine], the IC50 is 4.2 nM on IGF1R [1]; 38 nM on InsR; 7 µM against Aurora A; more than 10 µM against CDK2A; more than 10 µM at COT1; more than 10 µM against ERK2. Also, the 50% inhibitory concentration (IC50) at EphA4 was more than 10 µM; at FGFR-4 it was more than 10 µM; on GSK3beta, more than 10 µM; against HER2, more than 10 µM; against JAK2 it was more than 10 µM; at KDR it was 2.4 µM. The IC50 against LCK is more than 10 µM; on MK2, more than 10 µM; on P38a, more than 10 µM; at PDGFRa, 6.3 µM; on RET, 2 µM; on TYK2, more than 10 µM. For the same molecule, the IC50 is more than 10 µM against cABLT315, more than 10 µM against cKIT, more than 10 µM on cMET and 5 nM against IGF1R [2].

Turning to `[2H]C1([2H])C([2H])([2H])C2(COc3cccc(-c4cn([C@H]5C[C@](O)(CO)C5)c5ncnc(N)c45)c3F)OC1([2H])C([2H])([2H])C2([2H])[2H]` [Example 27, d9-(Z)-3-{4-Amino-5-[2-fluoro-3-(7-oxa-bicyclo[2.2.1]hept-1-ylmethoxy)-phenyl]-pyrrolo[2,3-d]pyrimidin-7-yl}-1-hydroxymethyl-cyclobutanol], the concentration for half-maximal inhibition (IC50) was 22 nM at IGF1R [1]; 130 nM on InsR; more than 10 µM against Aurora A; more than 10 µM on CDK2A; more than 10 µM at COT1; more than 10 µM against ERK2. The 50% inhibitory concentration (IC50) at EphA4, against FGFR-4, against GSK3beta, at HER2, on JAK2 and at KDR was more than 10 µM each time. Besides, the half-inhibitory concentration (IC50) was 6.6 µM against LCK; more than 10 µM on MK2; more than 10 µM against P38a; more than 10 µM at PDGFRa; more than 10 µM at RET; more than 10 µM against TYK2. Besides, the IC50 was more than 10 µM on cABLT315, more than 10 µM on cKIT, more than 10 µM at cMET and more than 30 µM at hERG channels.

Turning to `CC(=O)N1CCN([C@H]2C[C@H](n3cc(-c4cc(OC[C@@H]5CCCO5)ccc4F)c4c(N)ncnc43)C2)CC1` [Example 36, 1-{4-[trans-3-(4-Amino-5-{2-fluoro-5-[(S)-1-(tetrahydro-furan-2-yl)methoxy]-phenyl}-pyrrolo[2,3-d]pyrimidin-7-yl)-cyclobutyl]-piperazin-1-yl}-ethanone], the concentration for half-maximal inhibition (IC50) on IGF1R [1] is 30 nM; at InsR, 1300 nM; against Aurora A, more than 10 µM; on CDK2A it was more than 10 µM; against COT1 it was more than 10 µM; against ERK2, more than 10 µM. For the same molecule, the concentration for half-maximal inhibition (IC50) on EphA4, against FGFR-4, against GSK3beta, against HER2, against JAK2 and against KDR was more than 10 µM in each case. For the same molecule, the half-inhibitory concentration (IC50) against LCK was 9.7 µM; on MK2 it was more than 10 µM; at P38a, more than 10 µM; against PDGFRa, more than 10 µM; on RET, 3.1 µM; on TYK2 it was more than 10 µM. Further, the half-maximal inhibitory concentration (IC50) is more than 10 µM on cABLT315, more than 10 µM against cKIT, more than 10 µM against cMET and more than 30 µM on hERG channels.

With `Nc1ncnc2c1c(-c1cc(OC[C@@H]3CCCO3)ccc1F)cn2[C@H]1C[C@@H](N2CCN(C(=O)CO)CC2)C1` [Example 40, 1-{4-[cis-3-(4-Amino-5-{2-fluoro-5-[(S)-1-(tetrahydro-furan-2-yl)methoxy]-phenyl}-pyrrolo[2,3-d]pyrimidin-7-yl)-cyclobutyl]-piperazin-1-yl}-2-hydroxy-ethanone], the IC50 was 8.7 nM on IGF1R [1]; 270 nM on InsR; more than 10 µM at Aurora A; more than 10 µM on CDK2A; more than 10 µM at COT1; more than 10 µM against ERK2. Also, the IC50 against EphA4 was more than 10 µM; against FGFR-4 it was more than 10 µM; against GSK3beta it was more than 10 µM; at HER2, more than 10 µM; against JAK2, more than 10 µM; at KDR, 9.2 µM. Also, the IC50 against LCK, at MK2, against P38a, on PDGFRa, on RET and at TYK2 was more than 10 µM in each case. In addition, the 50% inhibitory concentration (IC50) is more than 10 µM at cABLT315, more than 10 µM at cKIT, more than 10 µM against cMET and more than 30 µM against hERG channels.

By IC50 is commonly meant the concentration needed to halve the response being measured.

The values are drawn from patent US20130338152A1, “FLUOROPHENYL BICYCLIC HETEROARYL COMPOUNDS” (IRM LLC, priority 2011, published 2013).
